The text below walks through data of paper PMC2139966 (The Journal of Cell Biology, 1997).

The assay concerns the target band 3 (anion exchanger AE1). Description: […]SO4/SO4 exchange in band […] proteoliposomes. The assay is classed as biochemical, Oryctolagus cuniculus.

The term Ki denotes the equilibrium dissociation constant of an inhibitor or competing ligand from its target. Low values mean higher affinity, high ones lower affinity. On to `O=[N+]([O-])c1ccc(/C=C/c2ccc([N+](=O)[O-])cc2S(=O)(=O)O)c(S(=O)(=O)O)c1` [DNDS, 4,4′-dinitorsostilbene-2,2′-disulfonic acid], for which the Ki worked out at 2000 ± 1000 nM.
